In patent publication US20170022258A1, “PEPTIDES FOR USE IN THE TREATMENT OF IL-1 RELATED DISEASES AND CONDITIONS” (C4M PHARMACEUTICALS PTY LTD., priority 2011, published 2017):
Non-standard residues stand in square brackets, D forms with d. Residues, ends and D or L forms follow the SMILES beside them. No end group written: not given here.

T1: IL-1 receptor (Homo sapiens, UniProt P14778)
T1 construct: confluent human monocytes, which express the IL-1 receptor; endogenous in cells; host or cells: human monocytes
T1 sequence (P14778 18-569): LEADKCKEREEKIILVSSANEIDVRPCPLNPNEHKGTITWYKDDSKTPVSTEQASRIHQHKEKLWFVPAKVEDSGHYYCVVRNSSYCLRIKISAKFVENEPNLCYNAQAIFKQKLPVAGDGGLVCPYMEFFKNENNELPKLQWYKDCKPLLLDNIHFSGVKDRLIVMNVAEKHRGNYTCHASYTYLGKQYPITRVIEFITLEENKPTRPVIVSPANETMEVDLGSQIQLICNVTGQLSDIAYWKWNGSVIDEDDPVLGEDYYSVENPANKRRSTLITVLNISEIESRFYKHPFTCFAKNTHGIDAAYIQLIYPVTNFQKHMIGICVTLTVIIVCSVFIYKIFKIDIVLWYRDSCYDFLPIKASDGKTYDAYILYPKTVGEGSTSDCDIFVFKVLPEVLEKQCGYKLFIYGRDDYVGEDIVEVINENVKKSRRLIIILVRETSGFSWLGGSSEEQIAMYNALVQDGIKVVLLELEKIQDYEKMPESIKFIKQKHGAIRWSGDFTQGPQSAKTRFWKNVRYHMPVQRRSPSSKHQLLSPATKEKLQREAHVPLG

T2: IL-1 receptor (IL-1R) expressed on human monocytes (human, UniProt P14778 18-569)
T2 sequence (looked up): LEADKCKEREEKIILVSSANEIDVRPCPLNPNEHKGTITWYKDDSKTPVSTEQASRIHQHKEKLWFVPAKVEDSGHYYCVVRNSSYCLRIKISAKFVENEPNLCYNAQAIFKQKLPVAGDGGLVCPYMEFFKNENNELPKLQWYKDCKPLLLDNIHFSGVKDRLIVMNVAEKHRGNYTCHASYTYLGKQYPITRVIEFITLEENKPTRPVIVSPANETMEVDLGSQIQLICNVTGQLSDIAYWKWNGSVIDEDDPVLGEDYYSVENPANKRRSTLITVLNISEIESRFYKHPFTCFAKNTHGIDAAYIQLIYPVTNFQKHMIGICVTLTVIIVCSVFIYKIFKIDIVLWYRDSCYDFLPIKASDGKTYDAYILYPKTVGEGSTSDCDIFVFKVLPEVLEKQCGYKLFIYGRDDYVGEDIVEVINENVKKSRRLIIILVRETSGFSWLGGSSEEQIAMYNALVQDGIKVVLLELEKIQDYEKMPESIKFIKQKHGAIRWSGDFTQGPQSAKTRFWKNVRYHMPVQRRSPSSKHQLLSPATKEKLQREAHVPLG


Key:
[1] = tested on: IL-1 stimulation of IL-8 in human skin fibroblasts; assay: Inhibition of IL-1 induced IL-8 in human fibroblasts; format: cell-based; details: inhibition of IL-1 stimulation of IL-8 in human skin fibroblasts; average of three measurements and standard error; read-out: Binding (IC50 nM)
Method: Inhibition of IL-1 induced IL-8 in human fibroblasts was determined using normal human dermal fibroblast cells cultured in DMEM with 10% fetal calf serum in 48-well plates.
Twenty-four hours before initiation of the experiment, the medium was changed to DMEM with 0.2% fetal calf serum. Each peptide was added to confluent cells, which were then pulsed for 30 min with rIL-I,B (which was obtained from R & D Systems) at 50 pg/ml. The cells were washed four times with PBS, and fresh DMEM/0.2% fetal calf serum was added to each well. After 5 hr of incubation, the culture media were collected and analyzed by ELISA for IL-8 (which was obtained from R & D Systems). Maximal activation, with IL-1 only, was 2530±13 pg/ml of IL-8. Nonspecific activation, determined in the presence of 1000-fold excess IL-1Ra, was 30±9 pg/ml of IL-8 (n=3).

IL-1 receptor = biological target: T1, IL-1 receptor; assay: Radioligand competition binding assay (125I-labeled IL-1α) on human monocytes; details: IL-1 binding antagonism on human monocytes; average of three measurements and standard error
Method: Radioligand competition binding assays were performed in 96-well plates containing confluent human monocytes, which express the IL-1 receptor. Wells were washed three times with binding buffer, and binding buffer was placed in each well. Peptides were resuspended in dimethyl sulfoxide at 20 mM and diluted in binding buffer to the desired starting concentration. Using a Beckman robotic system, five 3-fold dilutions were prepared, and peptide solution was transferred to duplicate receptor-containing wells. To each well, radioactive ^125Iodine-labeled IL-Ia (Amersham) was added to a final concentration of 40 pM, and the plates were placed on a shaking platform at 4° C. for 2 hr. Plates were washed with PBS using a plate washer, and bound ^125I-labeled IL-la was eluted for 10 min with 0.1 M NaOH and counted in a gamma counter. IC50 values were determined by fitting the data to a two-parameter logistic equation. In all cases, nonspecific binding was determined by the addition of 3 μM of recombinant IL-Ia.

[2] = biological target: T2, IL-1 receptor (IL-1R) expressed on …; assay: cell-based or functional assay
[3] = biological target: IL-1 receptor (IL-1R) expressed on human monocytes (human) (UniProt P14778); assay: cell-based or functional assay

| Molecule | IC50 [1] | further results |
| --- | --- | --- |
| CC(=O)N[C@H](CC(C)C)C(=O)N1CCC[C@@H]1C(=O)N[C@H](CC(C)C)C(=O)N[C@H](C)C(=O)N[C@H](Cc1ccc(O)cc1)C(=O)N1CCC[C@@H]1C(=O)N[C@H](CCC(N)=O)C(=O)N[C@H](Cc1c[nH]c2ccccc12)C(=O)N[C@H](Cc1ccc(O)cc1)C(=O)N[C@H](CCCNC(=N)N)C(=O)N[C@H](CCC(=O)O)C(=O)NCC(=O)N[C@H](CO)C(=O)N[C@H](CCC(N)=O)C(=O)N[C@H](CCCNC(=N)N)C(=O)N[C@H](Cc1c[nH]c2ccccc12)C(=O)N[C@H](CCCNC(=N)N)C(=O)N[C@H](CC(=O)O)C(=O)N[C@H](Cc1ccc(O)cc1)C(=O)NCC(=O)N[C@H](CC(=O)O)C(=O)O [SEQ ID NO. 21] (Ac-[dL][dP][dL][dA][dY][dP][dQ][dW][dY][dR][dE]G[dS][dQ][dR][dW][dR][dD][dY]G[dD]-OH; C-terminus assumed) | 730 nM | – |
| CC(=O)N[C@@H](CC(=O)O)C(=O)NCC(=O)N[C@@H](Cc1ccc(O)cc1)C(=O)N[C@@H](CC(=O)O)C(=O)N[C@@H](CCCNC(=N)N)C(=O)N[C@@H](Cc1c[nH]c2ccccc12)C(=O)N[C@@H](CCCNC(=N)N)C(=O)N[C@@H](CCC(N)=O)C(=O)N[C@@H](CO)C(=O)NCC(=O)N[C@@H](CCC(=O)O)C(=O)N[C@@H](CCCNC(=N)N)C(=O)N[C@@H](Cc1ccc(O)cc1)C(=O)N[C@@H](Cc1c[nH]c2ccccc12)C(=O)N[C@@H](CCC(N)=O)C(=O)N1CCC[C@H]1C(=O)N[C@@H](Cc1ccc(O)cc1)C(=O)N[C@@H](C)C(=O)N[C@@H](CC(C)C)C(=O)N1CCC[C@H]1C(=O)N[C@@H](CC(C)C)C(=O)O [SEQ ID NO. 20] (Ac-DGYDRWRQSGERYWQPYALPL-OH; C-terminus assumed) | 19 nM | – |
| CC[C@H](C)[C@H](NC(=O)[C@H](CC(N)=O)NC(=O)[C@@H](NC(=O)[C@H](C)NC(=O)[C@H](CCC(=O)O)NC(=O)[C@H](CC(C)C)NC(=O)[C@H](CCC(N)=O)NC(=O)[C@H](CC(C)C)NC(C)=O)C(C)C)C(=O)N[C@H](C(=O)N[C@@H](CC(=O)O)C(=O)N[C@@H](CC(C)C)C(=O)N[C@@H](CO)C(=O)N[C@@H](CCC(=O)O)C(=O)N[C@@H](CC(N)=O)C(=O)N[C@@H](CCCNC(=N)N)C(=O)N[C@@H](CCCCN)C(=O)N[C@@H](CCC(N)=O)C(=O)N[C@@H](CC(=O)O)C(=O)N[C@@H](CCCCN)C(=O)O)[C@@H](C)O [SEQ ID NO. 11, Ac-LQLEAVNITDLSENRKQDK] (Ac-LQLEAVNITDLSENRKQDK-OH; C-terminus assumed) | – | IC50 (IL-1 receptor): > 10000 nM |
| CC(=O)N[C@@H](CC(N)=O)C(=O)N[C@@H](CC(N)=O)C(=O)N[C@@H](CCC(N)=O)C(=O)N[C@@H](CC(C)C)C(=O)N[C@H](C(=O)N[C@@H](C)C(=O)NCC(=O)N[C@@H](Cc1ccc(O)cc1)C(=O)N[C@@H](CC(C)C)C(=O)N[C@@H](CCC(N)=O)C(=O)NCC(=O)N1CCC[C@H]1C(=O)N[C@@H](CC(N)=O)C(=O)N[C@H](C(=O)N[C@@H](CC(N)=O)C(=O)O)C(C)C)C(C)C [SEQ ID NO. 7, Ac-NNQLVAGYLQGPNVN] (Ac-NNQLVAGYLQGPNVN-OH; C-terminus assumed) | – | IC50 (IL-1 receptor): > 10000 nM |
| CC[C@H](C)[C@H](NC(C)=O)C(=O)N[C@@H](CC(=O)O)C(=O)N[C@H](C(=O)N[C@H](C(=O)N1CCC[C@H]1C(=O)N[C@H](C(=O)N[C@@H](CCC(=O)O)C(=O)N[C@@H](C)C(=O)N1CCC[C@H]1C(=O)N[C@@H](Cc1c[nH]cn1)C(=O)N[C@@H](C)C(=O)N[C@@H](CC(C)C)C(=O)N[C@@H](Cc1ccccc1)C(=O)N[C@@H](CC(C)C)C(=O)NCC(=O)N[C@H](C(=O)N[C@@H](Cc1c[nH]cn1)C(=O)NCC(=O)NCC(=O)N[C@@H](CCCCN)C(=O)O)[C@@H](C)CC)[C@@H](C)CC)C(C)C)C(C)C [SEQ ID NO. 9] (Ac-IDVVPIEAPHALFLGIHGGK-OH; C-terminus assumed) | – | IC50 (IL-1 receptor): > 10000 nM |
| CC(=O)N[C@@H](Cc1ccccc1)C(=O)N[C@H](C(=O)N[C@@H](Cc1c[nH]c2ccccc12)C(=O)N[C@@H](CCC(=O)O)C(=O)N[C@@H](CCC(=O)O)C(=O)N[C@@H](CO)C(=O)N[C@@H](CC(N)=O)C(=O)N[C@@H](C)C(=O)N[C@@H](Cc1ccc(O)cc1)C(=O)N[C@@H](Cc1ccc(O)cc1)C(=O)N[C@@H](Cc1c[nH]c2ccccc12)C(=O)N[C@@H](CCC(N)=O)C(=O)N1CCC[C@H]1C(=O)N[C@@H](Cc1ccc(O)cc1)C(=O)N[C@@H](C)C(=O)N[C@@H](CC(C)C)C(=O)N1CCC[C@H]1C(=O)N[C@@H](CC(C)C)C(=O)O)[C@@H](C)O [SEQ ID NO. 15, Ac-FTWEESNAYYWQPYALPL] (Ac-FTWEESNAYYWQPYALPL-OH; C-terminus assumed) | 16 nM | – |
| CC(=O)N[C@H](CC(C)C)C(=O)N1CCC[C@@H]1C(=O)N[C@H](CC(C)C)C(=O)N[C@H](C)C(=O)N[C@H](Cc1ccc(O)cc1)C(=O)N1CCC[C@@H]1C(=O)N[C@H](CCC(N)=O)C(=O)N[C@H](Cc1c[nH]c2ccccc12)C(=O)N[C@H](Cc1ccc(O)cc1)C(=O)N[C@H](Cc1ccc(O)cc1)C(=O)N[C@H](C)C(=O)N[C@H](CC(N)=O)C(=O)N[C@H](CO)C(=O)N[C@H](CCC(=O)O)C(=O)N[C@H](CCC(=O)O)C(=O)N[C@H](Cc1c[nH]c2ccccc12)C(=O)N[C@@H](C(=O)N[C@H](Cc1ccccc1)C(=O)O)[C@H](C)O [SEQ ID NO. 16, Ac-LPLAYPQWYYANSEEWTF] (Ac-[dL][dP][dL][dA][dY][dP][dQ][dW][dY][dY][dA][dN][dS][dE][dE][dW][dT][dF]-OH; C-terminus assumed) | 120 nM | – |
| CC(=O)N[C@H](CC(C)C)C(=O)N1CCC[C@@H]1C(=O)N[C@H](CC(C)C)C(=O)N[C@H](C)C(=O)N[C@H](Cc1ccc(O)cc1)C(=O)N1CCC[C@@H]1C(=O)N[C@H](CCC(N)=O)C(=O)N[C@H](Cc1c[nH]c2ccccc12)C(=O)N[C@H](Cc1ccc(O)cc1)C(=O)NCC(=O)N1CCC[C@@H]1C(=O)N[C@@H](C(=O)N[C@H](Cc1c[nH]c2ccccc12)C(=O)N[C@H](CCC(=O)O)C(=O)N[C@H](Cc1ccccc1)C(=O)N[C@H](CO)C(=O)N[C@H](CO)C(=O)N[C@@H](C(=O)N[C@H](CC(N)=O)C(=O)N[C@H](C)C(=O)N[C@@H](C(=O)O)[C@H](C)O)C(C)C)[C@H](C)O [SEQ ID NO. 18] | 810 nM | – |
| CC(=O)N[C@H](C(=O)N[C@@H](C)C(=O)N[C@@H](CC(N)=O)C(=O)N[C@H](C(=O)N[C@@H](CO)C(=O)N[C@@H](CO)C(=O)N[C@@H](Cc1ccccc1)C(=O)N[C@@H](CCC(=O)O)C(=O)N[C@@H](Cc1c[nH]c2ccccc12)C(=O)N[C@H](C(=O)N1CCC[C@H]1C(=O)NCC(=O)N[C@@H](Cc1ccc(O)cc1)C(=O)N[C@@H](Cc1c[nH]c2ccccc12)C(=O)N[C@@H](CCC(N)=O)C(=O)N1CCC[C@H]1C(=O)N[C@@H](Cc1ccc(O)cc1)C(=O)N[C@@H](C)C(=O)N[C@@H](CC(C)C)C(=O)N1CCC[C@H]1C(=O)N[C@@H](CC(C)C)C(=O)O)[C@@H](C)O)C(C)C)[C@@H](C)O [SEQ ID NO. 17] (Ac-TANVSSFEWTPGYWQPYALPL-OH; C-terminus assumed) | 76 nM | – |
| Ac-[dK][dD][dQ][dK][dR][dN][dE][dS][dL][dD][dT][dI][dN][dV][dA][dE][dL][dQ][dL] [peptide of SEQ ID NO: 12 (Ac-KDQKRNESLDTINVAELQL, D-amino acids)] | – | IC50, in vitro inhibition of IL-1 stimulation of IL-8 in human skin fibroblasts (rIL-1β 50 pg/ml, IL-8 ELISA) [2]: > 10000 nM |
| Ac-ETPFTWEESNAYYWQPYALPL (also called peptide 13) [peptide of SEQ ID NO: 13 (Ac-ETPFTWEESNAYYWQPYALPL)] | – | IC50, in vitro inhibition of IL-1 stimulation of IL-8 in human skin fibroblasts (rIL-1β 50 pg/ml, IL-8 ELISA) [2]: 11 nM |
| Ac-[dL][dP][dL][dA][dY][dP][dQ][dW][dY][dY][dA][dN][dS][dE][dE][dW][dT][dF][dP][dT][dE] [peptide of SEQ ID NO: 14 (Ac-…, D-amino acids)] | – | IC50, in vitro inhibition of IL-1 stimulation of IL-8 in human skin fibroblasts (rIL-1β 50 pg/ml, IL-8 ELISA) [3]: 11 nM |
